Measurements from patent publication US11999806B2, “Broad-spectrum polypeptide against enterovirus and application thereof” (WUHAN INSTITUTE OF VIROLOGY, CHINESE ACADEMY OF SCIENCES, priority 2018, dated 2024).
Several values for one entry are separate records, joined by “and”; a condition that tells them apart may be missing. Equal values may be shown once. Read-outs that look alike come from different tables or passages of the source. Non-standard residues stand in square brackets, D forms with d. Residues, ends and D or L forms follow the SMILES beside them. No end group written: not given here.

How the values were obtained:
CVA16 = type: cell-based, Coxsackievirus A16; details: CCK-8; for IC50: read-out: IC50 against CVA16; for Virus inhibition rate (%): CVA16, RD cells, 24 h
EV71 [1] = test: Anti-EV71 efficiency in Huh7.5 cells, viral RNA by qRT-PCR; type: cell-based, enterovirus 71; details: read-out: IC50 against EV71 by qRT-PCR
Text: […]

EV71 [2] = test: Anti-EV71 efficiency in 293T cells, viral RNA by qRT-PCR; type: cell-based, enterovirus 71; details: for antiviral effect of P2 variants as EV71 inhibitor, in words: FIG. 5, 293T cells, compared with P2
Protocol: • (1) 293T cells, Vero cells and Huh7.5 cells were plated in 24-well plates respectively. • (2) After the cells reached 70%-80% confluence, the MEM medium containing 10% serum was replaced with a MEM medium containing 2% serum (0.5 ml/well), and 5 μl of 10^6 PFU/mL EV71 virus per well was added. • (3) After 1 h, polypeptide P2 was added to different cells at a final concentration of 0.01 μM, 0.1 μM, 1 μM, 10 μM, and 50 μM, respectively. • (4) Samples were collected 24 hours after virus infection, and RNA was extracted with a total RNA extraction kit as follows. • (5) The supernatant in each well was discarded, then 350 μl of TRK Lysis Buffer was added to the well and the plate was shaken on the shaker for 5 minutes. • (6) 350 μl of 70% ethanol (DEPC-treated) was added to the well and the plate was shaken on the shaker for 5 minutes. • (7) The mixture in the well was transferred to a RNA extraction column and centrifuged at 12,000 g for 1 min. • (8) The solution collected in the recovery tube was added back to the column and centrifuged at 12,000 g for 1 min. • (9) RNA washing buffer 1 was added to the column and centrifuged at 12,000 g for 30 s. • (10) RNA washing buffer 2 was added to the column and centrifuged at 12,000 g for 1 min. • (11) Step (10) was repeated once. • (12) The empty column was centrifuged at 12,000 g for 2 min to completely remove residual RNA washing buffer. • (13) 50 μl DEPC-treated H2O was added to the column and centrifuge at 12,000 g for 2 min. • (14) 2 μl RNA sample was used according to one step qRT-PCR kit for fluorescence quantification experiment. […]

EV71 [3] = test: Anti-EV71 efficiency in Vero cells, viral RNA by qRT-PCR; type: cell-based, enterovirus 71; details: read-out: IC50 against EV71 by qRT-PCR
Text: […]

Vero cells = test: Cytotoxicity by CCK-8 in Vero cells; type: cell-based; details: for Cell viability (%): 24 h
Protocol: (§1) The experiment was performed as follows. • (1) Vero cells were plated in a 96-well plate at 100 μl per well. • (2) After the cells reached 70%-80% confluence, the MEM medium containing 10% serum was replaced with a MEM medium containing 2% serum. Then, polypeptide BP8, BP10 or BP15 was added to generate gradient concentrations of […], […], 12.5 μM, 25 μM, 50 μM, 100 μM, and 200 μM (final concentrations), respectively. • (3) The samples were collected 24 hours after the addition of the polypeptide, and 10 μl of live cell detection reagent CCK-8 was added to each well and mixed well. • (4) The plate was placed at 37° C. for 4 h. • (5) The absorbance value at OD450 was measured with a microplate reader.

[4] = Cytotoxicity by CCK-8 in Vero cells; type: cell-based; details: 24 h, read-out: Cell viability (%)
Protocol: as §1

CVB5 = test: Anti-CVB5 effect in RD cells, qRT-PCR; type: cell-based, Coxsackievirus B5; details: Example 20, read-out: IC50 against CVB5
Protocol: • (1) […] were plated in a 24-well cell plate. • (2) After the cells reached 70%-80% confluence, the MEM medium containing 10% serum was replaced with a MEM medium containing 2% serum (0.5 ml/well).

[5] = 20 mg/kg i.p. once daily for 3 days
Text: • (1) A total of 12 10-day-old suckling mice were randomly divided into two groups, 6 in each group.

Compound RRRRRRRREEVRQYCRDQ [P2] has an IC50 (CVA16; RD cells) of 1.53 µM, an IC50 (EV71 [1]) of 1.84 µM and an IC50 (EV71 [2]; 293T cells, read-out: IC50 against EV71 by qRT-PCR) of 9.68 µM. The IC50 (EV71 [3]) was 1.96 µM.

Work on YGRKKRRQRRRGSGEEVRQYCR [ER] yielded an IC50 (CVA16; RD cells) of 3.21 µM.

In the case of YGRKKRRQRRRGSGEAVREYCK [BP8], the “Cell viability (%)” value (Vero cells; 3.0625 μM) is reported as 105.2007% and 108.7417%, the “Cell viability (%)” value (Vero cells; 6.125 μM) is reported as 111.3814% and 119.3004% and the “Cell viability (%)” value (Vero cells; 12.5 μM) is reported as 106.8102% and 109.1924%. For the same compound, the “Cell viability (%)” value (Vero cells; 25 μM) was 99.47% and 113.6348%, the “Cell viability (%)” value (Vero cells; 50 μM) was 108.2266% and 112.4759% and the “Cell viability (%)” value (Vero cells; 100 μM) was 96.7% and 97.35%. For the same compound, the “Cell viability (%)” value (Vero cells; 200 μM) was 92.0023% and 92.52%, the “cytotoxicity, result in words” value (Vero cells; CCK-8, 24 h) was “not toxic to cells within 200 μM” and the viability at 24 h, 3.0625 µM ([4]; 3.0625 μM) was 103%. For the same compound, the viability at 24 h, 6.125 µM ([4]; 6.125 μM) was 101%, the viability at 24 h, 12.5 µM ([4]; 12.5 μM) was 95.5% and the viability at 24 h, 25 µM ([4]; 25 μM) was 96.6%. It also gave a viability at 24 h, 50 µM ([4]; 50 μM) of 94.4%, a viability at 24 h, 100 µM ([4]; 100 μM) of 99.7% and a viability at 24 h, 200 µM ([4]; 200 μM) of 87.2%. For the same compound, the IC50 (CVB5) was 1.54 µM.

In the case of `CCCCCCCCCCCCCCCC(=O)NCCCC[C@H](NC(=O)CCOCCOCCOCCOCCNC(=O)[C@H](CCCCN)NC(=O)[C@H](C)NC(=O)[C@@H]1CCCN1C(=O)[C@@H](NC(=O)[C@@H](NC(=O)[C@H](Cc1c[nH]c2ccccc12)NC(=O)CNC(=O)[C@H](CCC(N)=O)NC(=O)[C@H](CCC(=O)O)NC(=O)[C@H](CCCNC(=N)N)NC(=O)[C@H](CS)NC(=O)[C@H](Cc1ccc(O)cc1)NC(=O)[C@H](CCC(N)=O)NC(=O)[C@H](CCCNC(=N)N)NC(=O)[C@@H](NC(=O)[C@H](CCC(=O)O)NC(=O)[C@@H](N)CCC(=O)O)C(C)C)[C@@H](C)CC)[C@@H](C)CC)C(=O)O` [3A-EP-PEG4-PA], the “antiviral effect of P2 variants as EV71 inhibitor, in words” value (EV71 [2]) is reported as “improved antiviral effect”.

In the case of `CC[C@@H](C)[C@@H](NC(=O)[C@H]1CCCN1C(C)=O)C(=O)N[C@@H](C(=O)N[C@H](Cc1c[nH]c2ccccc12)C(=O)NCC(=O)N[C@H](CCC(N)=O)C(=O)N[C@H](CCC(=O)O)C(=O)N[C@H](CCCNC(=N)N)C(=O)N[C@H](CS)C(=O)N[C@H](Cc1ccc(O)cc1)C(=O)N[C@H](CCC(N)=O)C(=O)N[C@H](CCCNC(=N)N)C(=O)N[C@@H](C(=O)N[C@H](CCC(=O)O)C(=O)N[C@H](CCC(=O)O)C(=O)N1CCC[C@@H]1C(=O)N1CCC[C@@H]1C(=O)N[C@H](CCCNC(=N)N)C(=O)N[C@H](CCCNC(=N)N)C(=O)N[C@H](CCCNC(=N)N)C(=O)N[C@H](CCC(N)=O)C(=O)N[C@H](CCCNC(=N)N)C(=O)N[C@H](CCCNC(=N)N)C(=O)N[C@H](CCCCN)C(=O)N[C@H](CCCCN)C(=O)N[C@H](CCCNC(=N)N)C(=O)NCC(=O)N[C@H](Cc1ccc(O)cc1)C(N)=O)C(C)C)[C@H](C)CC` [3A-EP-DRI], the “antiviral effect of P2 variants as EV71 inhibitor, in words” value (EV71 [2]) is reported as “improved antiviral effect”.

In the case of `CC(=O)N[C@H](CCCNC(=N)N)C(=O)N[C@H](CS)C(=O)N[C@H](Cc1ccc(O)cc1)C(=O)N[C@H](CCC(N)=O)C(=O)N[C@H](CCCNC(=N)N)C(=O)N[C@@H](C(=O)N[C@H](CCC(=O)O)C(=O)N[C@H](CCC(=O)O)C(=O)N1CCC[C@@H]1C(=O)N1CCC[C@@H]1C(=O)N[C@H](CCCNC(=N)N)C(=O)N[C@H](CCCNC(=N)N)C(=O)N[C@H](CCCNC(=N)N)C(=O)N[C@H](CCC(N)=O)C(=O)N[C@H](CCCNC(=N)N)C(=O)N[C@H](CCCNC(=N)N)C(=O)N[C@H](CCCCN)C(=O)N[C@H](CCCCN)C(=O)N[C@H](CCCNC(=N)N)C(=O)NCC(=O)N[C@H](Cc1ccc(O)cc1)C(N)=O)C(C)C` [ER-DRI] (Ac-[dR][dC][dY][dQ][dR][dV][dE][dE][dP][dP][dR][dR][dR][dQ][dR][dR][dK][dK][dR]G[dY]-NH2), the “Virus inhibition rate (%)” value (CVA16; 0.15625 μM) is reported as 7.885% and 3.667% and 8.802%, the “Virus inhibition rate (%)” value (CVA16; 0.3125 μM) is reported as 12.1% and 11.19% and 21.45% and the “Virus inhibition rate (%)” value (CVA16; 0.625 μM) is reported as 15.77% and 13.75% and 27.14%. The “Virus inhibition rate (%)” value (CVA16; 1.25 μM) was 59.05% and 58.86% and 50.79%, the “Virus inhibition rate (%)” value (CVA16; 2.5 μM) was 93.52% and 84.17% and 77.93% and the “Virus inhibition rate (%)” value (CVA16; 5 μM) was 104.7% and 107.3% and 106.2%. The “effect on CVA16, in words” value (CVA16; RD cells) was “can significantly inhibit CVA16”, the IC50 (CVA16; RD cells) was 0.856 µM and the “HE staining of brain, liver, lung and kidney, in words” value ([5]; four weeks after administration) was “no significant pathological change in the brain, liver, lung and kidney”. The “body weight vs PBS group, in words” value ([5]; 10-day-old suckling mice, weight recorded 15 days) was “no significant difference in body weight”.
